Data taken from PubChem BioAssay AID520 (NMMLSC, 2006).
Calls of active or inactive are those of the source. No rule for the calls is given here.

Target: N-formyl peptide receptor 2 (Homo sapiens) (UniProt P25090)
Test: concentration-dependent FPRL1 ligand displacement – cell-based, FPR counter-screen, fluorescent ligand, dose response (AID 520)
Details: FPRL1-expressing cells, fluorescent ligand binding inhibition; for Ki: measured here: FPRL1 binding Ki

Sequence of N-formyl peptide receptor 2 (Homo sapiens) (P25090 whole entry, looked up): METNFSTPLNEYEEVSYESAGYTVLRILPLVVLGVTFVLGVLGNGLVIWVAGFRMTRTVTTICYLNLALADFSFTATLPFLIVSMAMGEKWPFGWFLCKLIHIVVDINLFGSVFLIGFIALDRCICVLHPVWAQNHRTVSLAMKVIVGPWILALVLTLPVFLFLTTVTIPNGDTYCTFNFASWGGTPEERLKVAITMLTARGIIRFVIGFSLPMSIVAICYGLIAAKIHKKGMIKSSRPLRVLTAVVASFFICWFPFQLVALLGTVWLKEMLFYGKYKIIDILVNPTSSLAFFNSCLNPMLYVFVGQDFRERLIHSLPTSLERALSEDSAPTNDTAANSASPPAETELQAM

Row | Ki [µM] | IC50 | Structure (SMILES)
1 | > 40.3 |  | Cc1cccc(C2CC(c3ccc(Cl)cc3)Nc3nc(N)nn32)c1 (centres undefined)
2 | > 40.3 | > 66.7 µM (inactive) | COCCCN1C(=O)C(=O)/C(=C(/O)c2ccc3c(c2)CC(C)O3)C1c1cccnc1 (centres undefined)
3 | > 40.3 |  | O=C(NCc1cccnc1)C1c2ccccc2C(=O)N1C1CCCCCC1 (centres undefined)
4 | > 40.3 |  | CCOC(=O)c1c(NC(=O)C2C3CCC(O3)C2C(=O)O)sc(C)c1-c1ccc(C)cc1 (centres undefined)
5 | > 40.3 |  | O=C(NC1CCCC1)C1CC1c1ccccc1 (centres undefined)
6 | > 40.3 | > 66.7 µM (inactive) | COc1cccc(C2C(C(=O)c3cc4ccccc4o3)=C(O)C(=O)N2c2cc(C)on2)c1OC (centres undefined)
7 | > 40.3 | > 66.7 µM (inactive) | Cc1ccc(C(=O)C2=C(O)C(=O)N(CCCn3ccnc3)C2c2ccc(OC(C)C)cc2)o1 (centres undefined)
8 | > 40.3 |  | CC1CCN(c2nc(-c3ccccc3)c(C#N)c(=O)[nH]2)CC1
9 | 27.2 |  | COc1ccc(-c2cn3cccnc3n2)cc1NC(=O)CC(C)C
10 | > 40.3 |  | COc1ccc(-c2nnc(Nc3nc4c(OC)cccc4s3)o2)c(OC)c1
11 | > 40.3 |  | CCCCn1c(NC(C)=O)c(C#N)c2nc3ccccc3nc21
12 | > 40.3 |  | Cc1ccc(Nc2ccc(C(=O)O)cc2N)cc1
13 | > 40.3 |  | O=c1cc(N2CCc3ccccc32)[nH]c(=O)n1Cc1ccc(F)cc1
14 | > 40.3 | > 66.7 µM (inactive) | COc1ccc(OC)c(C2/C(=C(/O)c3ccccc3)C(=O)C(=O)N2Cc2ccco2)c1 (centres undefined)
15 | > 40.3 |  | Cc1ccc(Nc2nc(C3CC3)cs2)cc1
16 | > 40.3 |  | COc1ccc(NC(=O)C2C(=O)NC3(C)CC2c2ccccc2O3)cc1 (centres undefined)
17 | > 40.3 | > 66.7 µM (inactive) | CC1=C(C#N)C(c2ccc3ncccc3c2)C(C#N)=C(C)N1
18 | > 40.3 |  | C=CCn1c(NC(=O)c2ccccc2)c(C#N)c2nc3ccccc3nc21
19 | > 40.3 | > 66.7 µM (inactive) | CCOc1ccc(C2C(C(=O)c3cccs3)=C(O)C(=O)N2CCCn2ccnc2)cc1 (centres undefined)
20 | > 40.3 | > 66.7 µM (inactive) | Cc1ccc(/C(O)=C2\C(=O)C(=O)N(c3cc(C)on3)C2c2cccc(Br)c2)cc1 (centres undefined)
21 | > 40.3 | > 66.7 µM (inactive) | O=C(C1=C(O)C(=O)N(Cc2ccccc2)C1c1ccncc1)c1ccco1 (centres undefined)

Row | Ki [µM] | IC50 | Structure (SMILES)
22 | > 40.3 | > 66.7 µM (inactive) | COc1cc(-n2nc(C)c3c2OC(N)=C(C#N)C3c2ccccc2)c(Cl)c(Br)c1O (centres undefined)
23 | > 40.3 |  | CN1C(=O)/C(=C2\SC(=S)N(C(CCC(=O)O)C(=O)O)C2=O)c2ccccc21 (centres undefined)
24 | > 40.3 | > 66.7 µM (inactive) | CCCCC1C(=O)N(c2ccccc2)N(c2ccccc2)C1=O
25 | > 40.3 |  | O=C(NCCN1CCOCC1)NC1(C(F)(F)F)Oc2ccc(Cl)cc2O1 (centres undefined)
26 | 11 |  | CNc1nn(-c2cccc(Cl)c2)nc1N
27 | > 40.3 |  | O=C(Nc1ccc(Nc2ccccc2)cc1)c1ccc(Br)o1
28 | > 40.3 | > 66.7 µM (inactive) | O=C(C1=C(O)C(=O)N(CCOCCO)C1c1cccs1)c1cccs1 (centres undefined)
29 | > 40.3 |  | Cc1cc2oc(C(=O)NC3CCS(=O)(=O)C3)c(C)c2cc1C (centres undefined)
30 | > 40.3 |  | CCC(NC(=O)Nc1cc(OC)c(OC)c(OC)c1)(C(F)(F)F)C(F)(F)F
31 | > 40.3 | > 66.7 µM (inactive) | COc1ccc(/C(O)=C2/C(=O)C(=O)N(c3nc(C)c(C)s3)C2c2ccco2)cc1 (centres undefined)
32 | > 40.3 |  | CCn1cc(C(=O)NC2CCC(C)CC2)c(=O)c2cc(S(=O)(=O)N3CCCCC3)ccc21 (centres undefined)
33 | > 40.3 |  | CSc1ccccc1NS(=O)(=O)c1ccccc1
34 | > 40.3 | > 66.7 µM (inactive) | C=CCOc1ccc(C2C(C(=O)c3ccco3)=C(O)C(=O)N2Cc2cccnc2)cc1 (centres undefined)
35 | > 40.3 |  | Cc1[nH]n2c(=O)c3c(nc2c1-c1ccc(Cl)cc1)CCC3
36 | > 40.3 |  | CCOC(=O)c1sc(=S)n2c1[nH]c(=O)c1ccc(C(=O)OC)cc12
37 | > 40.3 | > 66.7 µM (inactive) | CCOc1cc(C2C(C(=O)c3ccc(C)o3)=C(O)C(=O)N2CCc2ccccc2)ccc1O (centres undefined)
38 | > 40.3 |  | CCC(C)(C(=O)NC1CCCC1)N(CC1CCCO1)C(=O)c1ccc2c(c1)OCO2 (centres undefined)
39 | > 40.3 |  | COc1ccc(-c2cc(C(F)(F)F)nc(NC3CCCC3)n2)cc1OC
40 | > 40.3 | > 66.7 µM (inactive) | CCOc1cccc(/C(O)=C2/C(=O)C(=O)N(CCOC)C2c2ccc(C)o2)c1 (centres undefined)
41 | > 40.3 | > 66.7 µM (inactive) | CCN(CC)c1ccc(C=N/C(C#N)=C(\N)C#N)cc1
42 | > 40.3 |  | Cc1cc(SCC(N)=O)nc(SCC(=O)c2ccccc2)n1

Row | Ki [µM] | IC50 | Structure (SMILES)
43 | > 40.3 |  | O=C(NC1CCCCC1)c1sc(=S)n2c1[nH]c(=O)c1ccccc12
44 | > 40.3 |  | Cc1ccc(NC(=O)c2oc3ccc(S(=O)(=O)N4CCOCC4)cc3c2C)cc1C
45 | > 40.3 | > 66.7 µM (inactive) | Cc1ccc(C(=O)C2=C(O)C(=O)N(Cc3ccccc3)C2c2cccnc2)o1 (centres undefined)
46 | > 40.3 |  | CCCc1cc(=O)n2[nH]c(C)c(-c3ccccc3)c2n1
47 | > 40.3 |  | CCCCCNC(=O)c1ccc2c(=O)[nH]c3c(C(=O)NCC4CCCO4)sc(=S)n3c2c1 (centres undefined)
48 | > 40.3 | > 66.7 µM (inactive) | Cc1ccc(/C(O)=C2\C(=O)C(=O)N(CC(C)O)C2c2ccc(N(C)C)cc2)cc1 (centres undefined)
49 | > 40.3 |  | Cc1nnc(SCc2cnc(-c3ccccc3)o2)[nH]c1=O
50 | > 40.3 |  | O=C(O)C1CC=CCC1C(=O)N1CCN(c2nc(-c3ccccc3)c3ccccc3n2)CC1 (centres undefined)
51 | > 40.3 |  | COc1ccc(NC(=O)C(c2ccc(C)cc2)N(C)C(=O)c2cnccn2)cc1 (centres undefined)
52 | > 40.3 | > 66.7 µM (inactive) | O=C(C1=C(O)C(=O)N(CCCN2CCOCC2)C1c1ccccn1)c1cc2ccccc2o1 (centres undefined)
53 | > 40.3 |  | Cc1ccc(NC(=O)C2C(=O)N(CCO)C3(C)CC2c2ccccc2O3)cc1 (centres undefined)
54 | > 40.3 |  | CCOC(=O)C1CCN(Cc2ccc(C(=O)OC)cc2)CC1
55 | > 40.3 |  | CCOC(=O)c1cc(NC(=O)C2C3CCC(O3)C2C(=O)O)cc(C(=O)OCC)c1 (centres undefined)
56 | > 40.3 |  | COc1ccccc1-c1c(C)oc2cc(OC(=O)c3ccco3)ccc2c1=O
57 | > 40.3 |  | CN1CCN(CCCNC(=O)Nc2cccc3ccccc23)CC1
58 | > 40.3 | > 66.7 µM (inactive) | COCCCN1C(=O)C(O)=C(C(=O)c2ccco2)C1c1cccc(Br)c1 (centres undefined)
59 | 4.2 |  | CC(=O)OCCNc1cc(N2CCN(C)CC2)c2noc3c2c1C(=O)c1ccccc1-3
60 | > 40.3 |  | COc1ccccc1NC(=O)CSc1nnc(Cn2nnc(-c3ccccc3)n2)n1-c1ccccc1
61 | > 40.3 |  | CC(C)OC(=O)c1nnn(-c2nonc2N)c1CN1CCc2ccccc2C1
62 | > 40.3 |  | CCc1cc2c(=O)c(-c3nc4ccccc4n3C)c(COCC(=O)O)oc2cc1OC(=O)C(C)(C)C
63 | > 40.3 |  | CCOC(=O)Cc1cc(=O)n2[nH]c(C)c(-c3ccc(OC)cc3)c2n1

Row | Ki [µM] | IC50 | Structure (SMILES)
64 | > 40.3 |  | OCc1nc2ccccc2n1CC(O)Cn1ccc2ccccc21 (centres undefined)
65 | > 40.3 |  | O=c1c2c(nc3c(-c4ccc(Cl)cc4)c[nH]n13)CCCC2
66 | > 40.3 | > 66.7 µM (inactive) | C=CCOc1ccc(C2C(C(=O)c3cccs3)=C(O)C(=O)N2c2nnc(C)s2)cc1 (centres undefined)
67 | > 40.3 |  | CCOc1ccccc1Oc1c(C)oc2cc(OC(=O)c3ccco3)ccc2c1=O
68 | > 40.3 |  | CC(C)CN(CC(C)C)C(=O)CS(=O)(=O)Cc1ccccc1
69 | > 40.3 |  | O=C(NCc1cccnc1)C1c2ccccc2C(=O)N1C1CCCCCCC1 (centres undefined)
70 | > 40.3 |  | COc1ccc2c(=O)c(N3C(=O)c4ccccc4C3=O)c(C)oc2c1
71 | > 40.3 |  | CCCNC(=S)Nc1ccc(Nc2ccccc2)cc1
72 | > 40.3 |  | Cc1cc(NC(=O)CSc2nnc(Cn3c(=O)sc4ccccc43)n2-c2ccccc2C)no1
73 | > 40.3 |  | CCc1ccccc1NC(=O)C(C#N)Cc1cccnc1 (centres undefined)
74 | > 40.3 | > 66.7 µM (inactive) | C=CCN1C(=O)C2(/C(=C(\O)c3ccc4c(c3)OCCO4)C(=O)C(=O)N2CCCOC)c2ccccc21 (centres undefined)
75 | > 40.3 | > 66.7 µM (inactive) | Cc1cc(N2C(=O)C(=O)/C(=C(/O)c3ccc(F)cc3)C2c2cccc(Br)c2)no1 (centres undefined)
76 | > 40.3 |  | COc1ccc(-c2cc(C(F)(F)F)nc(N3CCN(c4ccccc4)CC3)n2)cc1OC
77 | > 40.3 | > 66.7 µM (inactive) | COc1cc(C2C(C(=O)c3ccco3)=C(O)C(=O)N2c2cc(C)on2)cc(Br)c1O (centres undefined)
78 | > 40.3 | > 66.7 µM (inactive) | COc1cccc(C2/C(=C(\O)c3ccc(OC)c(OC)c3)C(=O)C(=O)N2c2cc(C)on2)c1 (centres undefined)
79 | > 40.3 | > 66.7 µM (inactive) | O=C1C(C23CC4CC(CC(C4)C2)C3)C(=O)N(c2ccccc2)N1c1ccccc1
80 | > 40.3 |  | CCOC(=O)c1c(NC(=O)c2cc(C3CC3)on2)sc2c1CCCC2
81 | > 40.3 | > 66.7 µM (inactive) | COc1ccc(C2C(C(=O)c3ccco3)=C(O)C(=O)N2CCc2ccccc2)cc1OC (centres undefined)
82 | > 40.3 |  | Cc1ccc(C)c(-n2c(CNC(=O)c3ccco3)nnc2SCC(=O)N2CCc3ccccc32)c1
